What was measured:
[1] = system: human colon adenocarcinoma, MDR positive (HCT-15) cells; assay: 48-hour cellular proliferation assay, HCT-15 cells (sulforhodamine); type: cell-based; conditions: HCT-15, 48-hour
Description: (§1) Compounds of this invention were tested in a 48-hour cellular proliferation assay which uses human colon adenocarcinoma, MDR positive (HCT-15) cells, and human lung large cell carcinoma, MDR negative (NCI-H460) cells, in the 96-well microtitre format described in Skehan P., et al. New Colorimetric Cytotoxicity Assay for Anticancer Drug Screening. 1990, J. Natl. Cancer Inst. 82:1107-1112, hereby incorporated by reference. Briefly, the wells of a microtitre plate were charged sequentially with cultured cells and compounds of the invention (1.0×10^-4 to 1.0×10^-11 M in 10% DMSO prepared by dissolving compounds of the invention in DMSO and adding 11 μL of the DMSO solution to 100 μL of culture medium for a final DMSO concentration of 10%). Two of the following controls were also present in each microtitre plate: a solvent (DMSO) control without drug that yielded a 0% inhibition level and a trichloroacetic acid-treated well that yielded a 100% inhibition level. The cells were grown in culture (37° C., 5% CO2 atmosphere) for 48 hours then fixed by the addition of trichloroacetic acid. The wells were stained with sulforhodamine, washed with 1% acetic acid, and treated with 0.01M tris buffer (100 μL) to solubilize the adherent dye. The absorbance of the dye solution was measured with a Molecular Devices SpectraMax340 plate reader. The percent inhibition values were obtained by calculating the proportional response of the experimental values to the absorbance values of the controls.

[2] = system: human lung large cell carcinoma, MDR negative (NCI-H460) cells; assay: 48-hour cellular proliferation assay, NCI-H460 cells (sulforhodamine); type: cell-based; conditions: NCI-H460, 48-hour
Description: as §1

SMILES	IC50 [1]	IC50 [2]
COc1ccc(-c2c(-c3cc(OC)c(OC)c(OC)c3)ncn2C)cc1F [Example 3, 5-(3-fluoro-4-methoxyphenyl)-1-methyl-4-(3,4,5-trimethoxyphenyl)-1H-imidazole]	850 nM	920 nM
COc1cc(-c2ncn(C)c2-c2ccc(N(C)C)cc2)cc(OC)c1OC [Example 4, N,N-dimethyl-4-[1-methyl-4-(3,4,5-trimethoxyphenyl)-1H-imidazol-5-yl]aniline]	250 nM	400 nM
COc1ccc(-c2ncn(C)c2-c2cc(OC)c(OC)c(OC)c2)cc1N [Example 2, 2-methoxy-5-(1-methyl-5-(3,4,5-trimethoxyphenyl)-1H-imidazol-4-yl)phenylamine]	79 nM	34 nM
COc1ccc(-c2c(-c3cc(OC)c(OC)c(OC)c3)ncn2C)cc1N [Example 1, 2-methoxy-5-(1-methyl-4-(3,4,5-trimethoxyphenyl)-1H-imidazol-5-yl)phenylamine]	220 nM	170 nM

— patent US6201001A, “Imidazole antiproliferative agents” (Abbott Laboratories, priority 1999, dated 2001)
